Data: the supplement of paper PMC11061612

Columns and labels:
[1] = system: SW872 (Other Solid Carcinomas); assay: Bliss excess, mean over the matrix (fraction); higher = more synergy
How it was run: (§1)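 Cell lines in DMEM/F12 or RPMI with 10% FBS were plated in 1536-well plates, held 24 hours at 37°C, 5% CO2, then given two-drug dose matrices for 72 hours (DMSO typically 0.2%). Viability was read by CellTiter-Glo 2.0 luminescence and scaled as inhibition from 0 (vehicle wells) to 1 (blank wells). Combination Emax is the second-highest inhibition in the matrix; Bliss excess is observed combination effect minus expected EA + EB − EA·EB, EA and EB being single-agent effects.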

[2] = system: A4-Fuk (B-Lymphoblastic Leukemia); assay: combination Emax (second highest fraction inhibited in the dose matrix, 72 h); higher = more inhibition; extreme values may be limits of the assay
How it was run: as §1

[3] = system: COLO-668 (Small Cell Lung Carcinoma); assay: as above
How it was run: as §1

[4] = system: Ca-Ski (Cervical Carcinoma); assay: as above
How it was run: as §1

[5] = system: HAL-01 (B-Lymphoblastic Leukemia); assay: as above
How it was run: as §1

[6] = system: MDA-MB-453 (Breast Carcinoma); assay: as above
How it was run: as §1

[7] = system: NCI-H1355 (Lung Adenocarcinoma); assay: as above
How it was run: as §1

[8] = system: OE33 (Esophageal Adenocarcinoma); assay: as above
How it was run: as §1

[9] = system: SNU-387 (Hepatocellular Carcinoma); assay: as above
How it was run: as §1

[10] = system: SW872 (Other Solid Carcinomas); assay: as above
How it was run: as §1
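For Bliss excess, mean over the matrix in this document: after 72 h of two-drug dosing.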

C[C@@H](Nc1cc(F)cc(F)c1)c1cc(C(=O)N(C)C)cc2c(=O)cc(N3CCOCC3)oc12 [AZD8186] + CC(=O)c1c(C)c2cnc(Nc3ccc(N4CCNCC4)cn3)nc2n(C2CCCC2)c1=O [Palbociclib] (first compound max 10 µM, 7x7, partner max 10 µM)
Bliss excess [1]: 0.0874
combination Emax [2]: 0.706
combination Emax [3]: 0.378
combination Emax [4]: 0.484
combination Emax [5]: 0.793
combination Emax [6]: 0.578
combination Emax [7]: 0.425
combination Emax [8]: 0.477
combination Emax [9]: 0.614
combination Emax [10]: 0.359

C[C@@H](Oc1cc(-c2cnn(C3CCNCC3)c2)cnc1N)c1c(Cl)ccc(F)c1Cl [Crizotinib] + CC1=C(C(=CC=C1)Cl)NC(=O)C2=CN=C(S2)NC3=CC(=NC(=N3)C)N4CCN(CC4)CCO [Dasatinib] (first compound max 10 µM, 7x7, partner max 2 µM)
Bliss excess [1]: 0.041
combination Emax [2]: 0.922
combination Emax [3]: 0.415
combination Emax [4]: 0.942
combination Emax [5]: 0.961
combination Emax [6]: 0.214
combination Emax [7]: 0.289
combination Emax [8]: 0.853
combination Emax [9]: 0.743
combination Emax [10]: 0.615

C[C@@H](Oc1cc(-c2cnn(C3CCNCC3)c2)cnc1N)c1c(Cl)ccc(F)c1Cl [Crizotinib] + Cn1cnc2c(F)c(Nc3ccc(Br)cc3Cl)c(C(=O)NOCCO)cc21 [Selumetinib] (first compound max 10 µM, 7x7, partner max 10 µM)
Bliss excess [1]: -0.0107
combination Emax [2]: 0.942
combination Emax [3]: 0.852
combination Emax [4]: 0.551
combination Emax [5]: 0.991
combination Emax [6]: 0.15
combination Emax [7]: 0.388
combination Emax [8]: 0.539
combination Emax [9]: 0.89
combination Emax [10]: 0.338

CS(=O)(=O)CCNCc1ccc(-c2ccc3ncnc(Nc4ccc(OCc5cccc(F)c5)c(Cl)c4)c3c2)o1 [Lapatinib] + Cn1cnc2c(F)c(Nc3ccc(Br)cc3Cl)c(C(=O)NOCCO)cc21 [Selumetinib] (first compound max 10 µM, 7x7, partner max 10 µM)
Bliss excess [1]: 0.0006
combination Emax [2]: 0.979
combination Emax [3]: 0.493
combination Emax [4]: 0.671
combination Emax [5]: 0.516
combination Emax [6]: 0.389
combination Emax [7]: 0.472
combination Emax [8]: 0.743
combination Emax [9]: 0.62
combination Emax [10]: 0.25

O=C(c1cc(Cc2n[nH]c(=O)c3ccccc23)ccc1F)N1CCN(C(=O)C2CC2)CC1 [Olaparib] + CC1(C)CCC(CN2CCN(c3ccc(C(=O)NS(=O)(=O)c4ccc(NCC5CCOCC5)c([N+](=O)[O-])c4)c(Oc4cnc5[nH]ccc5c4)c3)CC2)=C(c2ccc(Cl)cc2)C1 [Venetoclax] (first compound max 10 µM, 7x7, partner max 1 µM)
Bliss excess [1]: -0.023
combination Emax [2]: 0.301
combination Emax [3]: 0.255
combination Emax [4]: 0.162
combination Emax [5]: 0.926
combination Emax [6]: 0.104
combination Emax [7]: 0.172
combination Emax [8]: 0.139
combination Emax [9]: 0.256
combination Emax [10]: 0.141

O=C(c1cc(Cc2n[nH]c(=O)c3ccccc23)ccc1F)N1CCN(C(=O)C2CC2)CC1 [Olaparib] + CN(CC[C@H](CSC1=CC=CC=C1)NC2=C(C=C(C=C2)S(=O)(=O)NC(=O)C3=CC=C(C=C3)N4CCC(CC4)[C@H](C5=CC=CC=C5C6=CC=C(C=C6)Cl)O)S(=O)(=O)C(F)(F)F)CCO [AZD4320] (first compound max 10 µM, 7x7, partner max 1 µM)
Bliss excess [1]: -0.0189
combination Emax [2]: 0.0633
combination Emax [3]: 0.823
combination Emax [4]: 0.26
combination Emax [5]: 0.65
combination Emax [6]: 0.224
combination Emax [7]: 0.198
combination Emax [8]: 0.105
combination Emax [9]: 0.304
combination Emax [10]: 0.133

O=C(c1cc(Cc2n[nH]c(=O)c3ccccc23)ccc1F)N1CCN(C(=O)C2CC2)CC1 [Olaparib] + COc1nnc2ccc(N3CCC(c4ccc(OCCN5CCN(C)C(=O)[C@H]5C)cc4)CC3)nn12 [AZD5153] (first compound max 10 µM, 7x7, partner max 1 µM)
Bliss excess [1]: 0.0202
combination Emax [2]: 0.876
combination Emax [3]: 0.323
combination Emax [4]: 0.481
combination Emax [5]: 0.801
combination Emax [6]: 0.664
combination Emax [7]: 0.335
combination Emax [8]: 0.224
combination Emax [9]: 0.419
combination Emax [10]: 0.568

O=C(c1cc(Cc2n[nH]c(=O)c3ccccc23)ccc1F)N1CCN(C(=O)C2CC2)CC1 [Olaparib] + Cc1c2c(nn1C)CSCc1cc(n(C)n1)CSc1cc(c3ccccc3c1)OCCCc1c(C(=O)O)n(C)c3c-2c(Cl)ccc13 [AZD5991] (first compound max 10 µM, 7x7, partner max 1 µM)
Bliss excess [1]: -0.0377
combination Emax [2]: 1
combination Emax [3]: 0.0291
combination Emax [4]: 0.146
combination Emax [5]: 0.269
combination Emax [6]: 0.341
combination Emax [7]: 0.146
combination Emax [8]: 0.0347
combination Emax [9]: 0.427
combination Emax [10]: 0.157

Cc1nc(-c2cn3c(n2)-c2ccc(-c4cnn(C(C)(C)C(N)=O)c4)cc2OCC3)n(C(C)C)n1 [Taselisib] + O=C(Nc1ccc2[nH]nc(-c3ccncc3)c2c1)[C@@H]1CCN(CC(=O)N2CCN(c3ccc(-c4ncccn4)cc3)CC2)C1 [SCH772984] (first compound max 10 µM, 7x7, partner max 5 µM)
Bliss excess [1]: 0.0712
combination Emax [2]: 1
combination Emax [3]: 0.855
combination Emax [4]: 0.833
combination Emax [5]: 0.78
combination Emax [6]: 0.721
combination Emax [7]: 0.656
combination Emax [8]: 0.831
combination Emax [9]: 0.996
combination Emax [10]: 0.636

CC1(C)CCC(CN2CCN(c3ccc(C(=O)NS(=O)(=O)c4ccc(NCC5CCOCC5)c([N+](=O)[O-])c4)c(Oc4cnc5[nH]ccc5c4)c3)CC2)=C(c2ccc(Cl)cc2)C1 [Venetoclax] + CS(=O)(=O)CCNCc1ccc(-c2ccc3ncnc(Nc4ccc(OCc5cccc(F)c5)c(Cl)c4)c3c2)o1 [Lapatinib] (first compound max 1 µM, 7x7, partner max 10 µM)
Bliss excess [1]: -0.0313
combination Emax [2]: 0.832
combination Emax [3]: 0.282
combination Emax [4]: 0.503
combination Emax [5]: 0.968
combination Emax [6]: 0.419
combination Emax [7]: 0.16
combination Emax [8]: 0.485
combination Emax [9]: 0.078
combination Emax [10]: 0.0911
